Like-named read-outs stand apart in the source and are kept apart here.
Tests used:
[1] = tested on: H929 human cancer cell lines; test: Cellular viability / proliferation (Cell TiterGlo, 72 h); format: cell-based
Method in brief: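 Compounds were added as 2-fold serial dilutions from 50 μM (final DMSO <1%) to H929 cells seeded 1,000 per well in 10% FBS medium one day earlier.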

Mcl-1 = Mcl-1 (Homo sapiens (Human), UniProt Q07820); test: Fluorescence polarization anisotropy (FPA) competition assay, FITC-Bak or FITC-Bim BH3 peptide; format: binding; conditions: read-out: Ki for Inhibition of Mcl-1 by FPA assay
[2] = Homo sapiens, NCI-H929, 72 h, read-out: GI50 on cellular proliferation of H929 human cancer cell lines, H929 cells, 72 h, Cell TiterGlo, 10% FBS
[3] = read-out: GI50 on cellular proliferation of H929 human cancer cell lines, H929 cells, 72 h, Cell TiterGlo, 10% FBS

Mcl-1, sequence (Q07820 172-327): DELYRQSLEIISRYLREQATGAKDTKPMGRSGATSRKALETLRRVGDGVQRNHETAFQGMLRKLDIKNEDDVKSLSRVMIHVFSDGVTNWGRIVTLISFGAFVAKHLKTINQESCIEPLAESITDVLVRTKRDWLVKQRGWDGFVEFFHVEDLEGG

SMILES	GI50 [1, 2]	Ki (Mcl-1)	GI50 [1, 3]
Cc1nc(Cn2c(C(=O)O)cc3cccc(N4C[C@@H](C)n5c(c(CCCOc6cc(C)c(Cl)c(C)c6)c6ccc(Cl)c(-c7c(C)nn(C)c7C)c65)C4=O)c32)no1 [Example 314, 7-[(4R)-7-chloro-10-[3-(4-chloro-3,5-dimethyl-phenoxy)propyl]-4-methyl-1-oxo-6-(1,3,5-trimethylpyrazol-4-yl)-3,4-dihydropyrazino[1,2-a]indol-2-yl]-1-[(5-methyl-1,2,4-oxadiazol-3-yl)methyl]indole-2-carboxylic acid]	930 nM	< 1 nM	
Cc1cc(OCCCc2c3n(c4c(-c5c(C)nn(C)c5C)c(Cl)ccc24)[C@H](C)CN(c2cn(CCN(C)C)c4cc(C(=O)O)ccc24)C3=O)cc(C)c1Cl [Example 340, (R)-3-(7-Chloro-10-(3-(4-chloro-3,5-dimethylphenoxy)propyl)-4-methyl-1-oxo-6-(1,3,5-trimethyl-1H-pyrazol-4-yl)-3,4-dihydropyrazino[1,2-a]indol-2(1H)-yl)-1-(2-(dimethylamino)ethyl)-1H-indole-6-carboxylic acid]	1800 nM	4.4 nM	
COc1ccc(N2C[C@@H](C)n3c(c(CCCOc4cc(C)c(Cl)c(C)c4)c4ccc(Cl)c(-c5c(C)ncnc5C)c43)C2=O)c2c1cc(C(=O)O)n2Cc1ccccn1 [Example 302, 7-[(4R)-7-chloro-10-[3-(4-chloro-3,5-dimethyl-phenoxy)propyl]-6-(4,6-dimethylpyrimidin-5-yl)-4-methyl-1-oxo-3,4-dihydropyrazino[1,2-a]indol-2-yl]-4-methoxy-1-(2-pyridylmethyl)indole-2-carboxylic acid]	< 200 nM	< 1 nM	
Cc1cc(OCCCc2c3n(c4c(-c5c(C)nn(C)c5C)c(Cl)ccc24)[C@H](C)CN(c2cn(C)c4c(C)cc(C(=O)O)cc24)C3=O)cc(C)c1Cl [Example 145, (R)-3-(7-chloro-10-(3-(4-chloro-3,5-dimethylphenoxy)propyl)-4-methyl-1-oxo-6-(1,3,5-trimethyl-1H-pyrazol-4-yl)-3,4-dihydropyrazino[1,2-a]indol-2(1H)-yl)-1,7-dimethyl-1H-indole-5-carboxylic acid]	360 nM	< 1 nM	
Cc1cc(OCCCc2c3n(c4c(-c5c(C)nc(CN6CCNCC6)nc5C)c(Cl)ccc24)[C@H](C)CN(c2cn(C)c4ccc(C(=O)O)cc24)C3=O)cc(C)c1Cl [Example 441, (R)-3-(7-Chloro-10-(3-(4-chloro-3,5-dimethylphenoxy)propyl)-6-(4,6-dimethyl-2-(piperazin-1-ylmethyl)pyrimidin-5-yl)-4-methyl-1-oxo-3,4-dihydropyrazino[1,2-a]indol-2(1H)-yl)-1-methyl-1H-indole-5-carboxylic acid]	4600 nM	7 nM	
CCn1cc(C(=O)O)c2c(N3C[C@@H](C)n4c(c(CCCOc5cc(C)c(Cl)c(C)c5)c5ccc(Cl)c(-c6c(C)nn(C)c6C)c54)C3=O)cccc21 [Example 173, 4-[(4R)-7-chloro-10-[3-(4-chloro-3,5-dimethyl-phenoxy)propyl]-4-methyl-1-oxo-6-(1,3,5-trimethylpyrazol-4-yl)-3,4-dihydropyrazino[1,2-a]indol-2-yl]-1-ethyl-indole-3-carboxylic acid]	3300 nM	2.7 nM	
COc1cc(N2C[C@@H](C)n3c(c(CCCOc4cc(C)c(Cl)c(C)c4)c4ccc(Cl)c(-c5c(C)nn(C)c5C)c43)C2=O)c2c(c1)c(C(=O)O)cn2C [Example 436, (R)-7-(7-Chloro-10-(3-(4-chloro-3,5-dimethylphenoxy)propyl)-4-methyl-1-oxo-6-(1,3,5-trimethyl-1H-pyrazol-4-yl)-3,4-dihydropyrazino[1,2-a]indol-2(1H)-yl)-5-methoxy-1-methyl-1H-indole-3-carboxylic acid]	510 nM	2.1 nM	
Cc1cc(OCCCc2c3n(c4c(-c5c(C)nn(C)c5C)c(Cl)ccc24)[C@H](C)CN(c2cccc4cc(C(=O)O)n(C)c24)C3=O)cc(C)c1Cl [Example 178, (R)-7-(7-Chloro-10-(3-(4-chloro-3,5-dimethylphenoxy)propyl)-4-methyl-1-oxo-6-(1,3,5-trimethyl-1H-pyrazol-4-yl)-3,4-dihydropyrazino[1,2-a]indol-2(1H)-yl)-1-methyl-1H-indole-2-carboxylic acid]	< 200 nM	< 1 nM	
Cc1cc(N2C[C@@H](C)n3c(c(CCCOc4cc(C)c(Cl)c(C)c4)c4ccc(Cl)c(-c5c(C)nn(C)c5C)c43)C2=O)c2cc(C(=O)O)n(C)c2c1 [Example 317, (R)-4-(7-Chloro-10-(3-(4-chloro-3,5-dimethylphenoxy)propyl)-4-methyl-1-oxo-6-(1,3,5-trimethyl-1H-pyrazol-4-yl)-3,4-dihydropyrazino[1,2-a]indol-2(1H)-yl)-1,6-dimethyl-1H-indole-2-carboxylic acid]	720 nM	< 1 nM	
Cc1cc(OCCCc2c3n(c4c(-c5c(C)nn(C)c5C)c(Cl)ccc24)[C@H](C)CN(c2cn(C)c4ccc(-c5ncn(CC6CC6)n5)cc24)C3=O)cc(C)c1Cl [Example 462, (R)-7-Chloro-10-(3-(4-chloro-3,5-dimethylphenoxy)propyl)-2-(5-(1-(cyclopropylmethyl)-1H-1,2,4-triazol-3-yl)-1-methyl-1H-indol-3-yl)-4-methyl-6-(1,3,5-trimethyl-1H-pyrazol-4-yl)-3,4-dihydropyrazino[1,2-a]indol-1(2H)-one]	990 nM	2 nM	
Cc1cc(OCCCc2c3n(c4c(-c5c(C)nn(C)c5C)c(Cl)ccc24)[C@H](C)CN(c2cccc4cc(C(=O)O)[nH]c24)C3=O)cc(C)c1Cl [Example 242, 7-[(4R)-7-chloro-10-[3-(4-chloro-3,5-dimethyl-phenoxy)propyl]-4-methyl-1-oxo-6-(1,3,5-trimethylpyrazol-4-yl)-3,4-dihydropyrazino[1,2-a]indol-2-yl]-1H-indole-2-carboxylic acid]		< 1 nM	1300 nM
Cc1cc(OCCCc2c3n(c4c(-c5c(C)nn(C)c5C)c(Cl)ccc24)CCCN(c2cc(C(=O)O)c4cnn(C(C)C)c4c2)C3=O)cc(C)c1Cl [Example 92, 6-[8-Chloro-11-[3-(4-chloro-3,5-dimethyl-phenoxy)propyl]-1-oxo-7-(1,3,5-trimethylpyrazol-4-yl)-4,5-dihydro-3H-[1,4]diazepino[1,2-a]indol-2-yl]-1-isopropyl-indazole-4-carboxylic acid]	900 nM	< 1 nM	
Cc1cc(OCCCc2c3n(c4c(-c5c(C)nn(C)c5C)c(Cl)ccc24)[C@H](C)CN(c2cccc4cc(C(=O)O)oc24)C3=O)cc(C)c1Cl [Example 194, (R)-7-(7-Chloro-10-(3-(4-chloro-3,5-dimethylphenoxy)propyl)-4-methyl-1-oxo-6-(1,3,5-trimethyl-1H-pyrazol-4-yl)-3,4-dihydropyrazino[1,2-a]indol-2(1H)-yl)benzofuran-2-carboxylic acid]	2300 nM	< 1 nM	
Cc1cc(OCCCc2c3n(c4c(-c5c(C)nn(C)c5C)c(Cl)ccc24)[C@H](C)CN(c2cccc4cc(C(N)=O)n(Cc5ccccn5)c24)C3=O)cc(C)c1Cl [Example 385, (R)-7-(7-Chloro-10-(3-(4-chloro-3,5-dimethylphenoxy)propyl)-4-methyl-1-oxo-6-(1,3,5-trimethyl-1H-pyrazol-4-yl)-3,4-dihydropyrazino[1,2-a]indol-2(1H)-yl)-1-(pyridin-2-ylmethyl)-1H-indole-2-carboxamide]	510 nM	4.1 nM	
Cc1cc(OCCCc2c3n(c4c(-c5c(C)n[nH]c5C)c(Cl)ccc24)[C@H](C)CN(c2cn(C)c4ccc(C(=O)O)cc24)C3=O)cc(C)c1Cl [Example 129, (R)-3-(7-chloro-10-(3-(4-chloro-3,5-dimethylphenoxy)propyl)-6-(3,5-dimethyl-1H-pyrazol-4-yl)-4-methyl-1-oxo-3,4-dihydropyrazino[1,2-a]indol-2(1H)-yl)-1-methyl-1H-indole-5-carboxylic acid]	550 nM	< 1 nM	
Cc1cc(OCCCc2c3n(c4c(-c5c(C)nn(C)c5C)c(Cl)ccc24)[C@H](C)CN(c2cccc4c(C(=O)O)cccc24)C3=O)cc(C)c1Cl [Example 63, (R)-5-(7-Chloro-10-(3-(4-chloro-3,5-dimethylphenoxy)propyl)-4-methyl-1-oxo-6-(1,3,5-trimethyl-1H-pyrazol-4-yl)-3,4-dihydropyrazino[1,2-a]indol-2(1H)-yl)-1-naphthoic acid]	270 nM	< 1 nM	
Cc1cc(OCCCc2c3n(c4c(-c5c(C)nn(C)c5C)c(Cl)ccc24)[C@H](C)CN(c2cc4ccc(C(=O)O)cc4n2C)C3=O)cc(C)c1Cl [Example 180, 2-[(4R)-7-chloro-10-[3-(4-chloro-3,5-dimethyl-phenoxy)propyl]-4-methyl-1-oxo-6-(1,3,5-trimethylpyrazol-4-yl)-3,4-dihydropyrazino[1,2-a]indol-2-yl]-1-methyl-indole-6-carboxylic acid]	1500 nM	2.1 nM	
CC(=O)N1CCN(S(=O)(=O)c2ccc3c(c2)c(N2C[C@@H](C)n4c(c(CCCOc5cc(C)c(Cl)c(C)c5)c5ccc(Cl)c(-c6c(C)nn(C)c6C)c54)C2=O)cn3C)CC1 [Example 278, (R)-2-(5-((4-acetylpiperazin-1-yl)sulfonyl)-1-methyl-1H-indol-3-yl)-7-chloro-10-(3-(4-chloro-3,5-dimethylphenoxy)propyl)-4-methyl-6-(1,3,5-trimethyl-1H-pyrazol-4-yl)-3,4-dihydropyrazino[1,2-a]indol-1(2H)-one]	1500 nM	5.4 nM	
Cc1cc(OCCCc2c3n(c4c(-c5c(C)nn(C)c5C)c(Cl)ccc24)[C@H](C)CN(c2cccc4c2c(C(=O)O)nn4C)C3=O)cc(C)c1Cl [Example 126, 4-[(4R)-7-chloro-10-[3-(4-chloro-3,5-dimethyl-phenoxy)propyl]-4-methyl-1-oxo-6-(1,3,5-trimethylpyrazol-4-yl)-3,4-dihydropyrazino[1,2-a]indol-2-yl]-1-methyl-indazole-3-carboxylic acid]		< 1 nM	5100 nM

Source: US11596639B2, “Substituted indole Mcl-1 inhibitors” (Vanderbilt University, priority 2016, dated 2023)
